Here are results for 29 molecules from patent US20240400555A1 (Initial Therapeutics, Inc., priority 2023, published 2024).

Molecules are shown by their SMILES.

In the experiment the test system is MV-4-11 cells. Nature of the experiment: Cell Viability Assay in MV-4-11 Cells. The class given is cell-based. As to conditions: Homo sapiens, MV4-11, 72 h, MV-4-11 cells, 72 h, Cell-Titer Glo; read-out: IC50. As to the method: MV-4-11 cells (ATCC) were seeded into sterile 96-well flat clear bottom white polystyrene TC-treated microplates (Corning) at 7,000 cells/well in 150 μL complete growth medium (Iscove's Modified Dulbecco's Medium (IMDM) (Gibco), 10% Heat Inactivated Fetal Bovine Serum (HyClone), 1% Penicillin-Streptomycin-L-Glutamine (HyClone), 1% GlutaMAX (Gibco)). […] After 72 h incubation, plates were removed from incubators and allowed to equilibrate to room temperature (˜10 min) before adding 50 μL per well Cell-Titer Glo reagent (Promega) using a WellJet (Integra Biosciences) dispenser. Plates were then incubated at room temperature for 2-20 min prior to measurement of luminescence on an Envision (Perkin Elmer) plate reader. Data were normalized to DMSO (100% viability) and analyzed using a non-linear four-parameter curve fit.
For the molecule `Cc1cccc2ccnc(N(C(=O)c3ccc(N4CCOc5ccccc54)cc3F)[C@@H]3CCCNC3)c12` [Example 645, 4-(2,3-dihydro-1,4-benzoxazin-4-yl)-2-fluoro-N-(8-methyl-1-isoquinolyl)-N-[(3R)-3-piperidyl] benzamide], the IC50 came to 2.4 µM.
The figure for `Cc1nnc(-c2ccc3c(N(C(=O)c4ccc(-n5nnc6cccnc65)cc4F)[C@@H]4CCCNC4)nccc3c2)s1` [Example 576, (R)-4-(3H-[1,2,3]triazolo[4,5-b]pyridin-3-yl)-2-fluoro-N-(6-(5-methyl-1,3,4-thiadiazol-2-yl)isoquinolin-1-yl)-N-(piperidin-3-yl)benzamide] is 0.43 µM; for `[2H]C([2H])([2H])n1cc(-c2ccc(C(=O)N(c3nccc4cccc(C)c34)[C@@H]3CCCNC3)c(F)c2)nn1` [Example 890, 2-fluoro-N-(8-methyl-1-isoquinolyl)-N-[(3R)-3-piperidyl]-4-[1-(trideuteriomethyl)triazol-4-yl]benzamide] it is 0.06 µM.
Consider `Cc1csc2ccnc(N(C(=O)c3ccc(-c4nnc(CCC#N)s4)nc3)[C@@H]3CCCNC3)c12` [Example 912, 6-[5-(2-cyanoethyl)-1,3,4-thiadiazol-2-yl]-N-(3-methylthieno[3,2-c]pyridin-4-yl)-N-[(3R)-3-piperidyl]pyridine-3-carboxamide], for which the IC50 turned out to be 0.17 µM.
As for `Cc1cc(Cl)cc2ccnc(N(C(=O)c3ccc(-n4nnc5cccnc54)cc3F)[C@@H]3CCCNC3)c12` [Example 615, N-(6-chloro-8-methyl-1-isoquinolyl)-2-fluoro-N-[(3R)-3-piperidyl]-4-(triazolo[4,5-b]pyridin-3-yl)benzamide], the IC50 came to 0.017 µM.
With `Cn1cc(-c2ccc(C(=O)N(c3nccc4cc(Cl)ccc34)[C@@H]3CCCNC3)cc2)nn1` [Example 808, (R)—N-(6-chloroisoquinolin-1-yl)-4-(1-methyl-1H-1,2,3-triazol-4-yl)-N-(piperidin-3-yl)benzamide] the figure was 0.42 µM; with `Cc1csc2ccnc(N(C(=O)c3ccc(-c4cn(C)nn4)cc3)[C@@H]3CCCNC3)c12` [Example 799, (R)-4-(1-methyl-1H-1,2,3-triazol-4-yl)-N-(3-methylthieno[3,2-c]pyridin-4-yl)-N-(piperidin-3-yl)benzamide], 0.079 µM.
Turning to `Cc1cccc2ccnc(N(C(=O)c3ccc(Nc4nccc(N5CCCC[C@H]5C)n4)cc3F)[C@@H]3CCCNC3)c12` [Example 959, 2-fluoro-N-(8-methylisoquinolin-1-yl)-4-({4-[(2R)-2-methylpiperidin-1-yl]pyrimidin-2-yl}amino)-N-[(3R)-piperidin-3-yl]benzamide], the IC50 amounted to 0.19 µM.
The figure for `Cc1cccc2ccnc(N(C(=O)c3ccc(Nc4nccc(/C=C/CO)n4)cc3F)[C@@H]3CCCNC3)c12` [Example 748, (R,E)-2-fluoro-4-((4-(3-hydroxyprop-1-en-1-yl)pyrimidin-2-yl)amino)-N-(8-methylisoquinolin-1-yl)-N-(piperidin-3-yl)benzamide] is 0.092 µM; for `Cc1nnc(-c2ccc(C(=O)N(c3nccc4cc(Cl)cc(C)c34)[C@@H]3CCCNC3)cn2)s1` [Example 709, (R)—N-(6-chloro-8-methylisoquinolin-1-yl)-6-(5-methyl-1,3,4-thiadiazol-2-yl)-N-(piperidin-3-yl)nicotinamide] it is 0.08 µM; for `Cc1ccc(C)c2c(N(C(=O)c3ccc(-c4cn(C)nn4)cc3)[C@@H]3CCCNC3)nccc12` [Example 861, N-(5,8-dimethyl-1-isoquinolyl)-4-(1-methyltriazol-4-yl)-N-[(3R)-3-piperidyl]benzamide] it is 0.62 µM.
With `Cc1cccc2ccnc(N(C(=O)c3cccc(C#CCCC(=O)N4CCC(O)C4)c3)[C@@H]3CCCNC3)c12` (stereo partly drawn) [Example 518, 3-(5-(3-hydroxypyrrolidin-1-yl)-5-oxopent-1-yn-1-yl)-N-(8-methylisoquinolin-1-yl)-N—((R)-piperidin-3-yl)benzamide] the figure was 0.94 µM.
As for `Cc1cccc2ccnc(N(C(=O)c3ccc(Nc4nccc(-c5ccc(N)nc5)n4)cc3F)[C@@H]3CCCNC3)c12` [Example 720, (R)-4-((4-(6-aminopyridin-3-yl)pyrimidin-2-yl)amino)-2-fluoro-N-(8-methylisoquinolin-1-yl)-N-(piperidin-3-yl)benzamide], the concentration for half-maximal inhibition (IC50) turned out to be 0.055 µM.
The figure for `Cc1cccc2ccnc(N(C(=O)c3ccc(Nc4ncccn4)nc3)[C@@H]3CCCNC3)c12` [Example 846, (R)—N-(8-methylisoquinolin-1-yl)-N-(piperidin-3-yl)-6-(pyrimidin-2-ylamino)nicotinamide] is 0.42 µM.
On to `Cc1cccc2ccnc(N(C(=O)c3ccc(Nc4nccc(-n5cncn5)n4)cc3F)[C@@H]3CCCNC3)c12` [Example 722, (R)-4-((4-(1H-1,2,4-triazol-1-yl)pyrimidin-2-yl)amino)-2-fluoro-N-(8-methylisoquinolin-1-yl)-N-(piperidin-3-yl)benzamide], for which the IC50 is 0.16 µM.
With `Cn1cc(-c2ccc(C(=O)N(c3nccc4cccc(/C=C/c5cn[nH]c5)c34)[C@@H]3CCCNC3)cc2)nn1` [Example 348, (R,E)-N-(8-(2-(1H-pyrazol-4-yl)vinyl)isoquinolin-1-yl)-4-(1-methyl-1H-1,2,3-triazol-4-yl)-N-(piperidin-3-yl)benzamide] the figure was 0.46 µM.
The figure for `Cn1cc(-c2ccc(C(=O)N(c3nccc4cc(Cc5cccnc5)ccc34)[C@@H]3CCCNC3)c(F)c2)nn1` [Example 828, (R)-2-fluoro-4-(1-methyl-1H-1,2,3-triazol-4-yl)-N-(piperidin-3-yl)-N-(6-(pyridin-3-ylmethyl)isoquinolin-1-yl)benzamide] is 1 µM; for `Cc1cccc2ccnc(N(C(=O)c3ccc(Nc4nccc(-c5cccnc5)n4)cc3F)[C@@H]3CCCNC3)c12` [Example 727, (R)-2-fluoro-N-(8-methylisoquinolin-1-yl)-N-(piperidin-3-yl)-4-((4-(pyridin-3-yl)pyrimidin-2-yl)amino)benzamide] it is 0.032 µM; for `Cc1cc(C)c2c(N(C(=O)c3ccc(-c4cn(C)nn4)cc3F)[C@@H]3CCCNC3)nccc2c1` [Example 702, (R)—N-(6,8-dimethylisoquinolin-1-yl)-2-fluoro-4-(1-methyl-1H-1,2,3-triazol-4-yl)-N-(piperidin-3-yl)benzamide] it is 0.025 µM.
For the molecule `O=Cc1cccc(-c2cc3c(N(C(=O)c4ccc(-n5nnc6cccnc65)cc4F)[C@@H]4CCCNC4)nccc3s2)c1` [Example 467, 2-fluoro-N-[2-(3-formylphenyl)thieno[3,2-c]pyridin-4-yl]-N-[(3R)-3-piperidyl]-4-(triazolo[4,5-b]pyridin-3-yl)benzamide], the IC50 is 0.22 µM.
The figure for `Cc1cccc2ccnc(N(C(=O)c3ccc(Nc4nccnn4)cc3F)[C@@H]3CCCNC3)c12` [Example 953, (R)-4-(1,2,4-triazin-3-ylamino)-2-fluoro-N-(8-methylisoquinolin-1-yl)-N-(piperidin-3-yl)benzamide] is 0.1 µM; for `CCc1nnc(-c2ccc(C(=O)N(c3nccc4cc(Cl)cc(C)c34)[C@@H]3CCCNC3)c(F)c2)s1` [Example 700, (R)—N-(6-chloro-8-methylisoquinolin-1-yl)-4-(5-ethyl-1,3,4-thiadiazol-2-yl)-2-fluoro-N-(piperidin-3-yl)benzamide] it is 0.21 µM.
The figure for `O=C(c1ccc(-n2nnc3cccnc32)cc1F)N(c1nccc2sc(Cc3cccnc3)cc12)[C@@H]1CCCNC1` [Example 465, 2-fluoro-N-[(3R)-3-piperidyl]-N-[2-(3-pyridylmethyl)thieno[3,2-c]pyridin-4-yl]-4-(triazolo[4,5-b]pyridin-3-yl)benzamide] is 0.24 µM; for `O=C(c1ccc(-n2nnc3cccnc32)cc1F)N(c1nccc2cnccc12)[C@@H]1CCCNC1` [Example 849, (R)-4-(3H-[1,2,3]triazolo[4,5-b]pyridin-3-yl)-2-fluoro-N-(2,6-naphthyridin-1-yl)-N-(piperidin-3-yl)benzamide] it is 2.6 µM; for `Cc1cccc2ccnc(N(C(=O)c3ccc(Nc4nccc(-c5ccncc5)n4)cc3F)[C@@H]3CCCNC3)c12` [Example 558, (R)-2-fluoro-N-(8-methylisoquinolin-1-yl)-N-(piperidin-3-yl)-4-((4-(pyridin-4-yl)pyrimidin-2-yl)amino)benzamide] it is 0.011 µM.
With `O=C(O)c1ccc(-c2cc3c(N(C(=O)c4ccc(-n5nnc6cccnc65)cc4F)[C@@H]4CCCNC4)nccc3s2)cc1` [Example 379, 4-[4-[[2-fluoro-4-(triazolo[4,5-b]pyridin-3-yl)benzoyl]-[(3R)-3-piperidyl]amino]thieno[3,2-c]pyridin-2-yl]benzoic acid] the figure was above 10 µM; with `Cc1cccc2ccnc(N(C(=O)N3CCC[C@@H](n4nc(-c5ccc(Oc6ccccc6)cc5)c5c(N)ncnc54)C3)[C@@H]3CCCNC3)c12` [Example 340, (R)-3-(4-amino-3-(4-phenoxyphenyl)-1H-pyrazolo[3,4-d]pyrimidin-1-yl)-N-(8-methylisoquinolin-1-yl)-N—((R)-piperidin-3-yl)piperidine-1-carboxamide], 0.86 µM; with `Cc1cc(C2CCN(C(=O)N(c3nccc4c(F)ccc(C)c34)[C@@H]3CCCNC3)CC2)on1` [Example 659, (R)—N-(5-fluoro-8-methylisoquinolin-1-yl)-4-(3-methylisoxazol-5-yl)-N-(piperidin-3-yl)piperidine-1-carboxamide], 0.51 µM.
Take `O=C(c1ccc(-n2nnc3cccnc32)cc1F)N(c1nccc2cc(-c3cc[nH]c(=O)c3)ccc12)[C@@H]1CCCNC1` [Example 440, (R)-4-(3H-[1,2,3]triazolo[4,5-b]pyridin-3-yl)-2-fluoro-N-(6-(2-oxo-1,2-dihydropyridin-4-yl)isoquinolin-1-yl)-N-(piperidin-3-yl)benzamide]: the IC50 is 0.29 µM.
